Tests used:
Type in all cases: in vivo
[1] = system: barnyardgrass (Echinochloa crus-galli); test: Test B pre-/postemergence plant response
Method in brief: (§1)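 Steps: plant seeds in loam soil–sand mix; spray soil preemergence, and in parallel spray 2–10 cm one- to two-leaf plants postemergence; hold ~10 days in greenhouse; visually rate injury against untreated controls (0 = no effect, 100 = complete control).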

[2] = system: corn (Zea mays); test: Test B pre-/postemergence plant response
Method in brief: as §1

[3] = system: giant foxtail (Setaria faberii); test: Test B pre-/postemergence plant response
Method in brief: as §1

[4] = system: pigweed (Amaranthus retroflexus); test: Test B pre-/postemergence plant response
Method in brief: as §1

[5] = system: wheat (Triticum aestivum); test: Test B pre-/postemergence plant response
Method in brief: as §1

[6] = system: Italian ryegrass (Lolium multiflorum); test: Test D pre-/postemergence plant response
Method in brief: (§2)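 Two application timings were run together: preemergence onto seeded loam–sand pots, and postemergence onto 1- to 4-leaf plants (2 to 18 cm) in peat/vermiculite medium with starter nutrients. Formulation was a non-phytotoxic solvent with surfactant. Ratings, 0 to 100, were made visually versus controls after 13 to 15 greenhouse days.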

[7] = system: barnyardgrass (Echinochloa crus-galli); test: Test D pre-/postemergence plant response
Method in brief: as §2

[8] = system: blackgrass (Alopecurus myosuroides); test: Test D pre-/postemergence plant response
Method in brief: as §2

[9] = system: corn (Zea mays); test: Test D pre-/postemergence plant response
Method in brief: as §2

[10] = system: galium (catchweed bedstraw, Galium aparine); test: Test D pre-/postemergence plant response
Method in brief: as §2

[11] = system: giant foxtail (Setaria faberii); test: Test D pre-/postemergence plant response
Method in brief: as §2

[12] = system: lambsquarters (Chenopodium album); test: Test D pre-/postemergence plant response
Method in brief: as §2

[13] = system: morningglory (Ipomoea coccinea); test: Test D pre-/postemergence plant response
Method in brief: as §2

[14] = system: pigweed (Amaranthus retroflexus); test: Test D pre-/postemergence plant response
Method in brief: as §2

[15] = system: ragweed (common ragweed, Ambrosia elatior); test: Test D pre-/postemergence plant response
Method in brief: as §2

[16] = system: waterhemp (common waterhemp, Amaranthus rudis); test: Test D pre-/postemergence plant response
Method in brief: as §2

[17] = 125 g ai/ha, postemergence, 0 to 100 scale, 0 no effect, 100 complete control
[18] = Postemergence, 500 g ai/ha, 0 to 100 scale (0 no effect, 100 complete control)
[19] = Preemergence, 125 g ai/ha, 0 to 100 scale where 0 is no effect and 100 is complete control
[20] = Preemergence, 500 g ai/ha, 0 to 100 scale where 0 is no effect and 100 is complete control
[21] = Postemergence, 16 g ai/ha, scale 0 to 100 (0 no effect, 100 complete control)
[22] = Postemergence, 31 g ai/ha, scale 0 to 100 (0 no effect, 100 complete control)
[23] = Postemergence, 62 g ai/ha, scale 0 to 100, 0 no effect, 100 complete control
[24] = Postemergence, 125 g ai/ha, scale 0 to 100, 0 no effect, 100 complete control
[25] = Preemergence, 16 g ai/ha, scale 0 to 100 (0 no effect, 100 complete control)
[26] = Preemergence, 31 g ai/ha, scale 0 to 100 (0 no effect, 100 complete control)
[27] = Preemergence, 62 g ai/ha, scale 0 to 100 (0 no effect, 100 complete control)

Cc1cc(-c2ccccc2Oc2ncc(Cl)cn2)no1 [Compound 60]
55: Plant response rating, Lambsquarters [12, 23] | Plant response rating, Pigweed [14, 23] | Plant response rating, Ragweed [15, 26]
80: Plant response rating, Barnyardgrass [1, 19] | Plant response rating, Foxtail, Giant [3, 19] | Plant response rating, Lambsquarters [12, 26] | Plant response rating, Waterhemp [16, 25]
75: Plant response rating (scale 0 to 100), Barnyardgrass ([7]; Preemergence, 125 g ai/ha) | Plant response rating, Lambsquarters [12, 24] | Plant response rating, Pigweed [14, 25]
85: Plant response rating, Galium [10, 26] | Plant response rating, Lambsquarters [12, 27]
40: Galium plant response rating [10, 22] | Plant response rating, Foxtail, Giant [11, 27] | Morningglory plant response rating [13, 22] | Plant response rating, Morningglory [13, 24] | Plant response rating, Ragweed [15, 23]
65: Plant response rating, Galium [10, 24] | Plant response rating, Ragweed [15, 27]
50: Plant response rating, Barnyardgrass [1, 17] | Plant response rating, Foxtail, Giant [3, 17] | Plant response rating, Galium [10, 23] | Plant response rating, Waterhemp [16, 23]
95: Plant response rating (scale 0 to 100), Foxtail, Giant ([11]; Preemergence, 125 g ai/ha)
70: Plant response rating (scale 0 to 100), Blackgrass ([8]; Preemergence, 125 g ai/ha) | Plant response rating, Pigweed [14, 24] | Plant response rating, Ragweed [15, 24] | Plant response rating, Waterhemp [16, 24]
20: Plant response rating, Blackgrass [8, 24] | Lambsquarters plant response rating [12, 21] | Lambsquarters plant response rating [12, 22] | Plant response rating (scale 0 to 100), Morningglory ([13]; Preemergence, 125 g ai/ha) | Pigweed plant response rating [14, 21]
0: Ryegrass, Italian plant response rating [6, 21] | Ryegrass, Italian plant response rating [6, 22] | Plant response rating, Ryegrass, Italian [6, 23] | Plant response rating, Ryegrass, Italian [6, 24] | Plant response rating, Ryegrass, Italian [6, 25] | Plant response rating, Ryegrass, Italian [6, 26] | Plant response rating, Ryegrass, Italian [6, 27] | Barnyardgrass plant response rating [7, 21] | Barnyardgrass plant response rating [7, 22] | Plant response rating, Barnyardgrass [7, 25] | Blackgrass plant response rating [8, 21] | Blackgrass plant response rating [8, 22] | Plant response rating, Blackgrass [8, 25] | Corn plant response rating [9, 21] | Corn plant response rating [9, 22] | Plant response rating, Corn [9, 26] | Plant response rating, Corn [9, 27] | Foxtail, Giant plant response rating [11, 21] | Plant response rating, Foxtail, Giant [11, 25] | Morningglory plant response rating [13, 21] | Plant response rating, Morningglory [13, 25] | Plant response rating, Morningglory [13, 26]
100: Plant response rating, Barnyardgrass [1, 18] | Plant response rating, Barnyardgrass [1, 20] | Plant response rating, Foxtail, Giant [3, 18] | Plant response rating, Foxtail, Giant [3, 20] | Plant response rating, Pigweed [4, 17] | Plant response rating, Pigweed [4, 18] | Plant response rating, Pigweed [4, 19] | Plant response rating, Pigweed [4, 20] | Plant response rating, Galium [10, 27] | Plant response rating (scale 0 to 100), Lambsquarters ([12]; Preemergence, 125 g ai/ha) | Plant response rating (scale 0 to 100), Pigweed ([14]; Preemergence, 125 g ai/ha) | Plant response rating, Pigweed [14, 26] | Plant response rating, Pigweed [14, 27] | Plant response rating (scale 0 to 100), Waterhemp ([16]; Preemergence, 125 g ai/ha) | Plant response rating, Waterhemp [16, 26] | Plant response rating, Waterhemp [16, 27]
90: Plant response rating, Corn [2, 18] | Plant response rating, Wheat [5, 18] | Plant response rating (scale 0 to 100), Ragweed ([15]; Preemergence, 125 g ai/ha)
98: Plant response rating (scale 0 to 100), Galium ([10]; Preemergence, 125 g ai/ha) | Plant response rating, Galium [10, 25]
30: Plant response rating, Corn [2, 17] | Plant response rating, Wheat [5, 17] | Plant response rating (scale 0 to 100), Ryegrass, Italian ([6]; Preemergence, 125 g ai/ha) | Plant response rating (scale 0 to 100), Barnyardgrass ([7]; Preemergence, 62 g ai/ha) | Galium plant response rating [10, 21] | Ragweed plant response rating [15, 22] | Waterhemp plant response rating [16, 22]
5: Plant response rating, Barnyardgrass [7, 26] | Plant response rating, Blackgrass [8, 23] | Plant response rating, Blackgrass [8, 26] | Plant response rating, Corn [9, 23] | Plant response rating, Corn [9, 24] | Plant response rating (scale 0 to 100), Corn ([9]; Preemergence, 125 g ai/ha) | Plant response rating, Corn [9, 25] | Foxtail, Giant plant response rating [11, 22] | Plant response rating, Foxtail, Giant [11, 23] | Plant response rating, Foxtail, Giant [11, 26]
35: Pigweed plant response rating [14, 22]
10: Plant response rating, Barnyardgrass [7, 23] | Plant response rating, Barnyardgrass [7, 24] | Plant response rating, Blackgrass [8, 27] | Plant response rating, Foxtail, Giant [11, 24] | Plant response rating, Lambsquarters [12, 25] | Plant response rating, Morningglory [13, 27]
15: Ragweed plant response rating [15, 21] | Plant response rating, Ragweed [15, 25] | Waterhemp plant response rating [16, 21]
25: Plant response rating, Morningglory [13, 23]

— patent publication US10131652B2, “Pyrimidinyloxy benzene derivatives as herbicides” (E. I. DU PONT DE NEMOURS AND COMPANY, priority 2014, dated 2018)
